# Assay results taken from US12257247B2 (Monte Rosa Therapeutics AG, priority 2023, dated 2025).
# Read-outs that look alike come from different tables or passages of the source.
# Target: T1, VAV1 (Homo sapiens, UniProt P15498+Q96SW2)
# T1 construct: A heterozygous VAV1 C-terminal HiBiT knock-in pool was generated at Monte Rosa Therapeutics from a clonal Jurkat cell; endogenous in cells; host or cells: Jurkat clone stably expressing LgBiT, homozygous GSPT1-G575N; heterozygous VAV1-HiBiT knock-in pool
# Experiment: VAV1 degradation activity, VAV1-HiBiT knock-in Jurkat luminescence assay (Example A, Table 1)
# Assay type: cell-based
# Conditions: VAV1-HiBiT knock-in Jurkat cells, luminescence read at 6 and 24 hours; for Dmax: Jurkat
# Outline: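 Luminescence was measured at 6 and 24 h after adding compound (10 μM stock) to VAV1-HiBiT knock-in Jurkat cells, which had been pre-incubated ~16 h at 37° C. in RPMI/10% FBS containing Endurazine. EC50 values came from control-normalised responses fitted to a 3-parameter logistic model with hillslope fixed at 1.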
# [1] = read-out: VAV1 DC50 (nM), class
Dmax (read-out: VAV1 Dmax %),"Dmax (read-out: VAV1 Dmax %, class)",DC50 (read-out: VAV1 DC50),DC50 [1],SMILES
73.5%,60 to 90%,190 nM,100 to 1000 nM,"O=C1CCC(c2cccc(-c3ccc(NC(=O)c4ccno4)cc3)c2Cl)C(=O)N1 (centres unmarked) [Compound 228, N-(2′-chloro-3′-(2,6-dioxopiperidin-3-yl)-[1,1′-biphenyl]-4-yl)isoxazole-5-carboxamide]"
82.7%,60 to 90%,79.3 nM,≤ 100 nM,"O=C1CCC(c2cccc(-c3ccc(NC(=O)c4ccon4)cc3)c2Cl)C(=O)N1 (centres unmarked) [Compound 229, N-(2′-chloro-3′-(2,6-dioxopiperidin-3-yl)-[1,1′-biphenyl]-4-yl)isoxazole-3-carboxamide]"
58.5%,< 60%,2090 nM,> 1000 nM,"O=C1CCC(c2cccc(-c3ccc(C(=O)Nc4ccon4)cc3)c2Cl)C(=O)N1 (centres unmarked) [Compound 230, 2′-chloro-3′-(2,6-dioxopiperidin-3-yl)-N-(isoxazol-3-yl)-[1,1′-biphenyl]-4-carboxamide]"
90.1%,> 90%,18.4 nM,≤ 100 nM,"CC(C)(c1ccc(-c2cccc(C3CCC(=O)NC3=O)c2Cl)cc1)n1ccccc1=O (centres unmarked) [Compound 231, 3-(2-chloro-4′-(2-(2-oxopyridin-1(2H)-yl)propan-2-yl)-[1,1′-biphenyl]-3-yl)piperidine-2,6-dione]"
98.5%,> 90%,2.8 nM,≤ 100 nM,"O=C1CCC(c2cccc(-c3ccc(N4C(=O)CCCC45CC5)cc3)c2Cl)C(=O)N1 (centres unmarked) [Compound 232, 3-(2-chloro-4′-(5-oxo-4-azaspiro[2.5]octan-4-yl)-[1,1′-biphenyl]-3-yl)piperidine-2,6-dione]"
92%,> 90%,16.1 nM,≤ 100 nM,"O=C1CCC(c2cccc(-c3ccc(CC4COC4)cc3)c2Cl)C(=O)N1 (centres unmarked) [Compound 233, 3-(2-chloro-4′-(oxetan-3-ylmethyl)-[1,1′-biphenyl]-3-yl)piperidine-2,6-dione]"
75.8%,60 to 90%,127 nM,100 to 1000 nM,"O=C1CCC(c2cccc(-c3ccc(-n4ccccc4=O)cc3)c2F)C(=O)N1 (centres unmarked) [Compound 234, 3-(2-fluoro-4′-(2-oxopyridin-1(2H)-yl)-[1,1′-biphenyl]-3-yl)piperidine-2,6-dione]"
97.1%,> 90%,3.87 nM,≤ 100 nM,"O=C1CCC(c2cccc(-c3ccc(CC(=O)N4CCCC4)cc3)c2Cl)C(=O)N1 (centres unmarked) [Compound 235, 3-(2-chloro-4′-(2-oxo-2-(pyrrolidin-1-yl)ethyl)-[1,1′-biphenyl]-3-yl)piperidine-2,6-dione]"
93.5%,> 90%,31.3 nM,≤ 100 nM,"O=C1CCC(c2cccc(-c3ccc(-n4ccc(C(F)(F)F)cc4=O)cc3)c2Cl)C(=O)N1 (centres unmarked) [Compound 236, 3-(2-chloro-4′-(2-oxo-4-(trifluoromethyl)pyridin-1(2H)-yl)-[1,1′-biphenyl]-3-yl)piperidine-2,6-dione]"
92.7%,> 90%,35.8 nM,≤ 100 nM,"O=C1CCC(c2cccc(-c3ccc(-n4cc(C(F)(F)F)ccc4=O)cc3)c2Cl)C(=O)N1 (centres unmarked) [Compound 237, 3-(2-chloro-4′-(2-oxo-5-(trifluoromethyl)pyridin-1(2H)-yl)-[1,1′-biphenyl]-3-yl)piperidine-2,6-dione]"
98.7%,> 90%,2.24 nM,≤ 100 nM,"O=C1CCC(c2cccc(-c3ccc(-n4c(C(F)F)cccc4=O)cc3)c2Cl)C(=O)N1 (centres unmarked) [Compound 238, 3-(2-chloro-4′-(6-(difluoromethyl)-2-oxopyridin-1(2H)-yl)-[1,1′-biphenyl]-3-yl)piperidine-2,6-dione]"
63.4%,60 to 90%,341 nM,100 to 1000 nM,"O=C1CCC(c2cccc(-c3ccc(Cn4ccccc4=O)cc3)c2)C(=O)N1 (centres unmarked) [Compound 239, 3-(4′-((2-oxopyridin-1(2H)-yl)methyl)-[1,1′-biphenyl]-3-yl)piperidine-2,6-dione]"
94.4%,> 90%,77.1 nM,≤ 100 nM,"Cc1c(-c2ccc(-n3ccccc3=O)cc2)cccc1C1CCC(=O)NC1=O (centres unmarked) [Compound 240, 3-[2-methyl-3-[4-(2-oxo-1-pyridyl)phenyl]phenyl]piperidine-2,6-dione]"
77%,60 to 90%,920 nM,100 to 1000 nM,"O=C1CCC(c2cccc(-c3ccc(C4(n5ccccc5=O)CC4)cc3)c2Cl)C(=O)N1 (centres unmarked) [Compound 241, 3-[2-chloro-3-[4-[1-(2-oxo-1-pyridyl)cyclopropyl]phenyl]phenyl]piperidine-2,6-dione]"
91.5%,> 90%,68.4 nM,≤ 100 nM,"O=C1CCC(c2cccc(-c3ccc(-n4c(F)cccc4=O)cc3)c2Cl)C(=O)N1 (centres unmarked) [Compound 242, 3-(2-chloro-4′-(6-fluoro-2-oxopyridin-1(2H)-yl)-[1,1′-biphenyl]-3-yl)piperidine-2,6-dione]"
56.8%,< 60%,4220 nM,> 1000 nM,"Cc1c(-c2ccc(Cn3ccccc3=O)cc2)cccc1C1CCC(=O)NC1=O (centres unmarked) [Compound 243, 3-[2-methyl-3-[4-[(2-oxo-1-pyridyl)methyl]phenyl]phenyl]piperidine-2,6-dione]"

Dmax (read-out: VAV1 Dmax %),"Dmax (read-out: VAV1 Dmax %, class)",DC50 (read-out: VAV1 DC50),DC50 [1],SMILES
96.5%,> 90%,8.36 nM,≤ 100 nM,"O=C1CCC(c2cccc(-c3ccc(N4C(=O)CCCC4C(F)(F)F)cc3)c2Cl)C(=O)N1 (centres unmarked) [Compound 244, 3-(2-chloro-4′-(2-oxo-6-(trifluoromethyl)piperidin-1-yl)-[1,1′-biphenyl]-3-yl)piperidine-2,6-dione]"
95.2%,> 90%,17.5 nM,≤ 100 nM,"O=C1CCC(c2cccc(-c3ccc(-n4ccc(F)cc4=O)cc3)c2Cl)C(=O)N1 (centres unmarked) [Compound 245, 3-[2-chloro-3-[4-(4-fluoro-2-oxo-1-pyridyl)phenyl]phenyl]piperidine-2,6-dione]"
94.3%,> 90%,17.5 nM,≤ 100 nM,"O=C1CCC(c2cccc(-c3ccc(-n4cc(F)ccc4=O)cc3)c2Cl)C(=O)N1 (centres unmarked) [Compound 246, 3-(2-chloro-4′-(5-fluoro-2-oxopyridin-1(2H)-yl)-[1,1′-biphenyl]-3-yl)piperidine-2,6-dione]"
95.4%,> 90%,5.38 nM,≤ 100 nM,CN1CCCN(c2ccc(-c3cccc(C4CCC(=O)NC4=O)c3Cl)cc2)C1=O (centres unmarked) [Compound 247]
84.4%,60 to 90%,26.3 nM,≤ 100 nM,"O=C1CCC(c2cccc(-c3ccc(NC(=O)N4CCCC4)cc3)c2Cl)C(=O)N1 (centres unmarked) [Compound 248, N-(2′-chloro-3′-(2,6-dioxopiperidin-3-yl)-[1,1′-biphenyl]-4-yl)pyrrolidine-1-carboxamide]"
48.9%,< 60%,7400 nM,> 1000 nM,"Cn1ccc(CCc2ccc(-c3cccc(C4CCC(=O)NC4=O)c3Cl)cn2)n1 (centres unmarked) [Compound 249, 3-(2-chloro-3-(6-(2-(1-methyl-1H-pyrazol-3-yl)ethyl)pyridin-3-yl)phenyl)piperidine-2,6-dione]"
73.8%,60 to 90%,354 nM,100 to 1000 nM,"Cn1ccc(COc2ccc(-c3cccc(C4CCC(=O)NC4=O)c3Cl)cn2)n1 (centres unmarked) [Compound 251, 3-(2-chloro-3-(6-((1-methyl-1H-pyrazol-3-yl)methoxy)pyridin-3-yl)phenyl)piperidine-2,6-dione]"
82.8%,60 to 90%,54.8 nM,≤ 100 nM,O=C1CCC(c2cccc(-c3ccc(CN4CCc5ocnc5C4=O)cc3)c2Cl)C(=O)N1 (centres unmarked) [Compound 252]
87.7%,60 to 90%,29.6 nM,≤ 100 nM,O=C1CCC(c2cccc(-c3ccc(CN4C(=O)CCn5nccc54)cc3)c2Cl)C(=O)N1 (centres unmarked) [Compound 253]
96.2%,> 90%,11.2 nM,≤ 100 nM,CC1Oc2ccncc2N(Cc2ccc(-c3cccc(C4CCC(=O)NC4=O)c3Cl)cc2)C1=O (centres unmarked) [Compound 254]
89.5%,60 to 90%,11 nM,≤ 100 nM,CN1CC(=O)N(Cc2ccc(-c3cccc(C4CCC(=O)NC4=O)c3Cl)cc2)c2cccnc21 (centres unmarked) [Compound 255]
75.8%,60 to 90%,213 nM,100 to 1000 nM,CN1CC(=O)N(Cc2ccc(-c3cccc(C4CCC(=O)NC4=O)c3Cl)cc2)c2cnccc21 (centres unmarked) [Compound 256]
94.2%,> 90%,9.66 nM,≤ 100 nM,CN1CC(=O)N(Cc2ccc(-c3cccc(C4CCC(=O)NC4=O)c3Cl)cc2)CC1(C)C (centres unmarked) [Compound 257]
94.5%,> 90%,12.6 nM,≤ 100 nM,O=C1CCC(c2cccc(-c3ccc(CN4CC(C(F)(F)F)OCC4=O)cc3)c2Cl)C(=O)N1 (centres unmarked) [Compound 258]
90%,> 90%,28.1 nM,≤ 100 nM,CN1CC(=O)N(Cc2ccc(-c3cccc(C4CCC(=O)NC4=O)c3Cl)cc2)CC12COC2 (centres unmarked) [Compound 259]
83.9%,60 to 90%,193 nM,100 to 1000 nM,O=C1CCC(c2cccc(-c3ccc(CN4CC5CCCN5CC4=O)cc3)c2Cl)C(=O)N1 (centres unmarked) [Compound 260]
